In BindingDB's records for doi:10.1016/j.bmcl.2009.01.090 (Gsk, 2009):
pIC50: −log10 of the molar value.

Target: T1, Gag-Pol polyprotein [1148-1435] (Human immunodeficiency virus 1, UniProt P04585)
T1 construct: 1148-1435
Assay: HIV Integrase Strand Transfer Scintillation Proximity Assay (SPA)
Details: pH 7.2; 37 °C
Method: Purified recombinant integrase was first combined in a complex with biotinylated donor DNA- streptavidin-coated SPA beads. The complex was preincubated with the test compound, and strand transfer was initiated with a radiolabeled target DNA substrate. After incubation, the incorporated radioactivity was read in a Wallac MicroBeta scintillation plate reader using a counting protocol that corrected for optical cross talk between wells.

| SMILES | pIC50 |
| --- | --- |
| O=S1(=O)CCCCN1c1nc(-c2noc(Cc3ccc(F)cc3)n2)c(O)c2ncccc12 [2-(7-{5-[(4-fluorophenyl)methyl]-1,2,4-oxadiazol-3-yl}-8-hydroxy-1,6-naphthyridin-5-yl)-1,2-thiazinane-1,1-dione] | < 4.00 |
| O=C(NCc1ccc(F)cc1)c1nc(N2CCCCS2(=O)=O)c2cccnc2c1O [5-(1,1-dioxo-1,2-thiazinan-2-yl)-N-[(4-fluorophenyl)methyl]-8-hydroxy-1,6-naphthyridine-7-carboxamide] | 7.89 |
| Oc1c(-c2noc(-c3ccccc3)n2)ncc2cccnc12 [7-(5-phenyl-1,2,4-oxadiazol-3-yl)-1,6-naphthyridin-8-ol] | < 4.00 |
| Cn1nc(Cc2ccc(F)cc2)nc1-c1ncc2cccnc2c1O [7-{3-[(4-fluorophenyl)methyl]-1-methyl-1H-1,2,4-triazol-5-yl}-1,6-naphthyridin-8-ol] | < 3.30 |
